Assay results reported in patent US20260286396A1, “AXL KNOCK OUT CAR T CELLS AND METHODS FOR USE THEREOF” (priority 2023, published 2026).

System: CART19 cells
Test: RNA sequencing of CART19 cells with Ingenuity pathway analysis (pathways, upstream regulators)
Type: cell-based, human
Method: CART19 cells were isolated using CD4 and CD8 microbeads to […] the JeKo-1 target cells; this isolation step was performed twice to eliminate the possible contamination of JeKo-1 cells. RNA was isolated from the CART19 cells using QIAGEN RNEASY® Plus Mini Kit. RNA was further treated with DNase I (QIAGEN) and purified using RNA Clean & Concentrator (Zymo Research). […] The fastq files were viewed in FastQC to check for quality (Cox et al., Mol Ther., 29 (4): 1529-1540, 2020). After verifying the lack of adapter sequences with FastQC, Cutadapt (Martin, EMBnet, 17:10-12, 2011) was used to filter for reads greater than 32 base pairs. Output files were re-checked for quality using FastQC. The latest human reference genome (GRCh38.p13) was downloaded from NCBI. Genome index files were generated using STAR (Cox et al. 2020, supra, and Dobin et al., Bioinformatics, 29:15-21, 2012). Paired end reads from fastq files were mapped to the genome for each condition. HTSeq was used to generate expression counts for each gene (Cox et al. 2020, supra; and Putri et al., Bioinformatics, 38:2943-2945, 2022). […] The disruption efficiency of the CRISPR/Cas9 GM-CSF knockout was determined using targeted sequencing through PCR and TIDE analysis (software available at tide.nki.nl) as described elsewhere (Sakemura et al. 2021, supra).
RNA sequencing of CART19 cells was then performed. […] Data were analyzed with the use of QIAGEN Ingenuity Pathway Analysis (IPA) (digitalinsights.qiagen.com/IPA; Krämer et al., Bioinformatics 30 (4): 523-530, 2014).

[1] = Upstream Regulator KLF11, 30 nM, 24 hours vs vehicle
[2] = Upstream Regulator LAMA4, 30 nM, 24 hours vs vehicle
[3] = Upstream Regulator LARP1, flag bias, 30 nM, 24 hours vs vehicle
[4] = Upstream Regulator MFSD2A, 30 nM, 24 hours vs vehicle
[5] = Upstream Regulator MSC, 30 nM, 24 hours vs vehicle
[6] = Upstream Regulator MYC, 30 nM, 24 hours vs vehicle
[7] = Upstream Regulator MYCN, 30 nM, 24 hours vs vehicle
[8] = Upstream Regulator NELFB, 30 nM, 24 hours vs vehicle
[9] = Upstream Regulator NFAT5, 30 nM, 24 hours vs vehicle
[10] = Upstream Regulator NR3C1, 30 nM, 24 hours vs vehicle
[11] = Upstream Regulator NT5E, 30 nM, 24 hours vs vehicle
[12] = Upstream Regulator NUPR1, 30 nM, 24 hours vs vehicle
[13] = Upstream Regulator PAX5, 30 nM, 24 hours vs vehicle
[14] = Upstream Regulator PDGFB, 30 nM, 24 hours vs vehicle
[15] = Upstream Regulator REL, 30 nM, 24 hours vs vehicle
[16] = Upstream Regulator RXRB, 30 nM, 24 hours vs vehicle
[17] = Upstream Regulator SATB1, 30 nM, 24 hours vs vehicle
[18] = Upstream Regulator SHC1, 30 nM, 24 hours vs vehicle
[19] = Upstream Regulator SMAD3, 30 nM, 24 hours vs vehicle
[20] = Upstream Regulator STAT3, 30 nM, 24 hours vs vehicle
[21] = Upstream Regulator STAT6, 30 nM, 24 hours vs vehicle
[22] = Upstream Regulator STIM1, 30 nM, 24 hours vs vehicle
[23] = Upstream Regulator SYK, 30 nM, 24 hours vs vehicle
[24] = Upstream Regulator TAFAZZIN, 30 nM, 24 hours vs vehicle
[25] = Upstream Regulator TCF3, 30 nM, 24 hours vs vehicle
[26] = Upstream Regulator TCF12, 30 nM, 24 hours vs vehicle
[27] = Upstream Regulator TCR, 30 nM, 24 hours vs vehicle
[28] = Upstream Regulator TFRC, 30 nM, 24 hours vs vehicle
[29] = Upstream Regulator TGF BETA, 30 nM, 24 hours vs vehicle
[30] = Upstream Regulator TGFB2, 30 nM, 24 hours vs vehicle
[31] = Upstream Regulator TIGIT, 30 nM, 24 hours vs vehicle
[32] = Upstream Regulator TLR9, 30 nM, 24 hours vs vehicle
[33] = Upstream Regulator TNF, 30 nM, 24 hours vs vehicle
[34] = Upstream Regulator USP38, 30 nM, 24 hours vs vehicle
[35] = Upstream Regulator ZBTB16, 30 nM, 24 hours vs vehicle
[36] = upstream regulator ACE, CART19 stimulated with JeKo-1, 30 nM TP-0903 vs vehicle, 24 hours
[37] = upstream regulator AMBRA1, CART19 stimulated with JeKo-1, 30 nM TP-0903 vs vehicle, 24 hours
[38] = upstream regulator CCR2, CART19 stimulated with JeKo-1, 30 nM TP-0903 vs vehicle, 24 hours
[39] = upstream regulator CIP2A, CART19 stimulated with JeKo-1, 30 nM TP-0903 vs vehicle, 24 hours
[40] = upstream regulator ERBB3, CART19 stimulated with JeKo-1, 30 nM TP-0903 vs vehicle, 24 hours
[41] = upstream regulator HGF, CART19 stimulated with JeKo-1, 30 nM TP-0903 vs vehicle, 24 hours
[42] = upstream regulator IKBKG, CART19 stimulated with JeKo-1, 30 nM TP-0903 vs vehicle, 24 hours
[43] = upstream regulator IL7, CART19 stimulated with JeKo-1, 30 nM TP-0903 vs vehicle, 24 hours
[44] = upstream regulator PPARD, CART19 stimulated with JeKo-1, 30 nM TP-0903 vs vehicle, 24 hours
[45] = upstream regulator SMAD4, CART19 stimulated with JeKo-1, 30 nM TP-0903 vs vehicle, 24 hours

`CN1CCN(Cc2ccc(Nc3ncc(Cl)c(Nc4ccccc4S(=O)(=O)N(C)C)n3)cc2)CC1` [TP-0903, Dubermatinib] was tested, and the “Expr Log Ratio” value [1] was −0.037, the “Predicted Activation State” value [1] was “inhibited” and the “Activation Z-Score” value [2] was 2.985. The “Expr Log Ratio” value [2] was −1.478, the “Predicted Activation State” value [2] was “activated” and the “Expr Log Ratio” value (Upstream Regulator LARP1, 30 nM, 24 hours vs vehicle) was −0.22. For the same compound, the “Activation Z-Score” value [3] was 3.461, the “Predicted Activation State” value [3] was “activated” and the “Expr Log Ratio” value (Upstream Regulator MED12, 30 nM, 24 hours vs vehicle) was 0.075. For the same compound, the “Activation Z-Score” value (Upstream Regulator MEK, 30 nM, 24 hours vs vehicle) was −1.682, the “Activation Z-Score” value [4] was 2.219 and the “Expr Log Ratio” value [4] was −0.204. The “Predicted Activation State” value [4] was “activated”, the “Activation Z-Score” value (Upstream Regulator MIR-34A-5P (AND OTHER MIRNAS W/SEED GGCAGUG), flag bias, 30 nM, 24 hours vs vehicle) was 0.22 and the “Activation Z-Score” value (Upstream Regulator MIR-155-5P (MIRNAS W/SEED UAAUGCU), flag bias, 30 nM, 24 hours vs vehicle) was 1.95. The “Activation Z-Score” value (Upstream Regulator MIR-155, 30 nM, 24 hours vs vehicle) was 0.713, the “Activation Z-Score” value [5] was 0.707 and the “Expr Log Ratio” value [5] was 0.103. For the same compound, the “Activation Z-Score” value [6] was −1.663, the “Expr Log Ratio” value [6] was −0.584 and the “Activation Z-Score” value [7] was −2.592. The “Expr Log Ratio” value [7] was −0.217, the “Predicted Activation State” value [7] was “inhibited” and the “Activation Z-Score” value [8] was −1. The “Expr Log Ratio” value [8] was 0.032, the “Activation Z-Score” value [9] was −0.466 and the “Expr Log Ratio” value [9] was −0.006. For the same compound, the “Activation Z-Score” value [10] was 0.182, the “Expr Log Ratio” value [10] was 0.097 and the “Activation Z-Score” value [11] was 0.447. For the same compound, the “Expr Log Ratio” value [11] was 0.513, the “Activation Z-Score” value [12] was 0.396 and the “Expr Log Ratio” value [12] was 1.017. For the same compound, the “Activation Z-Score” value [13] was −1.01, the “Expr Log Ratio” value [13] was −0.607 and the “Activation Z-Score” value (Upstream Regulator PDGF BB, 30 nM, 24 hours vs vehicle) was −0.275. The “Activation Z-Score” value [14] was −1.513, the “Expr Log Ratio” value [14] was 0.018 and the “Activation Z-Score” value (Upstream Regulator PKA, 30 nM, 24 hours vs vehicle) was −1.077. The “Activation Z-Score” value (Upstream Regulator PKC(S), 30 nM, 24 hours vs vehicle) was 1.03, the “Expr Log Ratio” value (Upstream Regulator POU2F2, 30 nM, 24 hours vs vehicle) was −0.143 and the “Activation Z-Score” value (Upstream Regulator POU2F2, flag bias, 30 nM, 24 hours vs vehicle) was −1. For the same compound, the “Activation Z-Score” value [15] was −0.988, the “Expr Log Ratio” value [15] was 0.266 and the “Activation Z-Score” value [16] was 1.155. The “Expr Log Ratio” value [16] was −0.076, the “Activation Z-Score” value [17] was −1.359 and the “Expr Log Ratio” value [17] was −0.104. For the same compound, the “Activation Z-Score” value [18] was 0.963, the “Expr Log Ratio” value [18] was 0.076 and the “Activation Z-Score” value [19] was −1.454. The “Expr Log Ratio” value [19] was 0.337, the “Activation Z-Score” value [20] was −1.117 and the “Expr Log Ratio” value [20] was 0.116. The “Activation Z-Score” value [21] was −2.16, the “Expr Log Ratio” value [21] was −0.088 and the “Predicted Activation State” value [21] was “inhibited”. For the same compound, the “Activation Z-Score” value [22] was −3, the “Expr Log Ratio” value [22] was 0.123 and the “Predicted Activation State” value [22] was “inhibited”. For the same compound, the “Activation Z-Score” value [23] was −1.203, the “Expr Log Ratio” value [23] was −0.298 and the “Activation Z-Score” value [24] was 0. For the same compound, the “Expr Log Ratio” value [24] was −0.111, the “Activation Z-Score” value [25] was −0.213 and the “Expr Log Ratio” value [25] was −0.061. For the same compound, the “Activation Z-Score” value [26] was −0.207, the “Expr Log Ratio” value [26] was 0.077 and the “Activation Z-Score” value [27] was −2.683. The “Predicted Activation State” value [27] was “inhibited”, the “Activation Z-Score” value [28] was 2.335 and the “Expr Log Ratio” value [28] was −0.051. For the same compound, the “Predicted Activation State” value [28] was “activated”, the “Activation Z-Score” value [29] was −2.031 and the “Predicted Activation State” value [29] was “inhibited”. For the same compound, the “Activation Z-Score” value [30] was −1.591, the “Expr Log Ratio” value [30] was −1.361 and the “Activation Z-Score” value [31] was −1.982. For the same compound, the “Expr Log Ratio” value [31] was 0.2, the “Activation Z-Score” value [32] was −0.796 and the “Expr Log Ratio” value [32] was −0.186. For the same compound, the “Activation Z-Score” value [33] was −2.543, the “Predicted Activation State” value [33] was “inhibited” and the “Expr Log Ratio” value (Upstream Regulator TP53, 30 nM, 24 hours vs vehicle) was 0.089. For the same compound, the “Activation Z-Score” value [34] was −1.213, the “Expr Log Ratio” value [34] was −0.109 and the “Activation Z-Score” value [35] was −0.683. The “Expr Log Ratio” value [35] was −0.061, the “Activation Z-Score” value [36] was 1 and the “Expr Log Ratio” value [36] was −1.023. For the same compound, the “Activation Z-Score” value [37] was 1.808, the “Expr Log Ratio” value [37] was −0.003 and the “Activation Z-Score” value [38] was 0.314. For the same compound, the “Expr Log Ratio” value [38] was −1.545, the “Activation Z-Score” value [39] was 0 and the “Expr Log Ratio” value [39] was 0.131. The “Activation Z-Score” value [40] was −1, the “Expr Log Ratio” value [40] was −1.599 and the “Expr Log Ratio” value (upstream regulator GPD1, CART19 stimulated with JeKo-1, 30 nM TP-0903 vs vehicle, 24 hours) was 0.348. For the same compound, the “Activation Z-Score” value [41] was −0.973, the “Expr Log Ratio” value [41] was −0.131 and the “Activation Z-Score” value [42] was −0.788. The “Expr Log Ratio” value [42] was 0.136, the “Activation Z-Score” value [43] was −0.288 and the “Expr Log Ratio” value [43] was 0.684. For the same compound, the “Activation Z-Score” value (upstream regulator LET-7A-5P (AND OTHER MIRNAS W/SEED GAGGUAG), flag bias, CART19 stimulated with JeKo-1, 30 nM TP-0903 vs vehicle, 24 hours) was 1.25, the “Activation Z-Score” value (upstream regulator NFKB (COMPLEX), CART19 stimulated with JeKo-1, 30 nM TP-0903 vs vehicle, 24 hours) was −1.386 and the “Activation Z-Score” value (upstream regulator PI3K (COMPLEX), CART19 stimulated with JeKo-1, 30 nM TP-0903 vs vehicle, 24 hours) was −1.952. For the same compound, the “Activation Z-Score” value [44] was −0.089, the “Expr Log Ratio” value [44] was −0.036 and the “Activation Z-Score” value (upstream regulator SCGB1A1, CART19 stimulated with JeKo-1, 30 nM TP-0903 vs vehicle, 24 hours) was 1.993. The “Activation Z-Score” value [45] was −0.02, the “Expr Log Ratio” value [45] was −0.097 and the “Activation Z-Score” value (upstream regulator TFPI2, CART19 stimulated with JeKo-1, 30 nM TP-0903 vs vehicle, 24 hours) was 1.131.
